Source: PMC7942396, “Drug Repurposing Screen for Compounds Inhibiting the Cytopathic Effect of SARS-CoV-2” (Frontiers in Pharmacology, 2021)
Where “and” joins values, the source holds several entries; their conditions need not be identical. Equal values may be shown once. Where a name gives a salt, the structure may show the parent alone. Read-outs that look alike come from different tables or passages of the source.

Experiments:
Ebola virus = settings: ref Kouznetsova et al., 2019; read-out: EC50, block of Ebola viral entry; cited from earlier work
[1] = tested on: SARS-CoV-2 (USA_WA1/2020); test: microbe, parasite or virus in culture; format: cell-based
in vitro = settings: African green monkey
[2] = human, cited from earlier work; for Cmax: Single dose 600 mg PO, ref Winstanley et al. (1987)
Vero E6 cells [3] = settings: Vero E6 cells without virus, 72 h
SARS-CoV = settings: ref Barnard et al., 2008; read-out: EC50, inhibition of SARS-CoV replication; cited from earlier work
P-glycoprotein (P-gp) = tested on: P-glycoprotein (P-gp); design: method as in EMA, 2020; settings: ref EMA, 2020; cited from earlier work
SARS-CoV-2 [4] = tested on: SARS-CoV-2; design: method as in Stanford University, 2020; settings: Vero E6 cells; ref Stanford University, 2020; read-out: EC50 against SARS-CoV-2; cited from earlier work
SARS-CoV-2 [5] = tested on: SARS-CoV-2; design: method as in Stanford University, 2020; settings: Calu-3 or Huh7 cell lines; ref Stanford University, 2020; read-out: EC50 against SARS-CoV-2; cited from earlier work
Vero E6 cells [6] = test: cells; settings: Chlorocebus sabaeus, Vero C1008, read-out: % Viability: IC50
[7] = Severe acute respiratory syndrome coronavirus 2, Vero C1008, 72 h; read-out: CPE EC50
[8] = Severe acute respiratory syndrome coronavirus 2, Vero C1008; […]; DMSO 0%, no-virus control 100%; hit confirmation; read-out: CPE % efficacy
[9] = Severe acute respiratory syndrome coronavirus 2, Vero C1008, read-out: CPE % Efficacy
[10] = Severe acute respiratory syndrome coronavirus 2, Vero C1008, SARS-CoV-2 CPE assay, Vero E6 cells; confirmed anti-SARS-CoV-2 compounds; read-out: CPE EC50
[11] = Severe acute respiratory syndrome coronavirus 2, Vero C1008; SARS-CoV-2 CPE assay, Vero E6 cells; efficacy; read-out: CPE % Efficacy
[12] = Severe acute respiratory syndrome coronavirus 2, Vero C1008; SARS-CoV-2 CPE assay, Vero E6 cells; read-out: CPE % Efficacy
[13] = Severe acute respiratory syndrome coronavirus 2, Vero C1008; SARS-CoV-2 CPE assay, Vero E6 cells; read-out: CPE EC50

In the case of `CC(=O)c1ccc2c(c1)N(CCCN1CCC(CCO)CC1)c1ccccc1S2` [Piperacetazine, reference compound], the EC50 (Ebola virus) is given as 9.68 µM, the EC50 [1, 7] is given as 10 µM and the Emax [1, 8] is given as 104%. For the same molecule, the cytotoxicity (in vitro) was under 30%.

In the case of `CN1CCC[C@@H]1CCO[C@](C)(c1ccccc1)c1ccc(Cl)cc1` [Clemastine fumarate, reference compound], the “Elimination T1/2” value ([2]; Single dose 1.34 mg PO, ref Schran et al. (1996)) is given as 21.3 ± 11.6 h and the cytotoxicity (in vitro) is given as under 30%.

With `CCN(CC)Cc1cc(Nc2ccnc3cc(Cl)ccc23)ccc1O.Cl.Cl.O.O` [Amodiaquine dihydrochloride, reference compound] the CPE % Efficacy ([1]; […]; DMSO 0%, no-virus control 100%; hit confirmation) was 87.2%, the EC50 ([1]; read-out: CPE EC50) was 4 µM and the “% Cytotox” value (Vero E6 cells [3]) was under 30%. The Cmax [2] was 32 ± 3 ng/mL and the Cmax ([2]; read-out: Cmax) was 69 nM.

In the case of `CN(C)CC/C=C1/c2ccccc2Sc2ccc(Cl)cc21` [Chlorprothixene, reference compound], the EC50 [1, 7] is listed as 10 µM, the Emax [1, 8] is listed as 104% and the “Elimination T1/2” value ([2]; Single dose 100 mg IV, ref Bagli et al. (1996)) is listed as 25.8 ± 13.6 h. The EC50 (SARS-CoV) was about 10 µM and the cytotoxicity (in vitro) was under 30%.

For `CN(C)C(=O)C(CCN1CCC(O)(c2ccc(Cl)cc2)CC1)(c1ccccc1)c1ccccc1` [Loperamide hydrochloride, reference compound], the Emax [1, 8] is given as 98.6%, the “Elimination T1/2” value ([2]; Single dose 2 mg PO, ref Janssen Pharmaceutica Inc. (1998)) is given as 9.1 to 14.4 h and the cytotoxicity (in vitro) is given as under 30%.

For `CNCC[C@H](Oc1cccc2ccccc12)c1cccs1` [Duloxetine hydrochloride, reference compound], the EC50 ([1]; Severe acute respiratory syndrome coronavirus 2, Vero C1008, 72 h, read-out: CPE EC50) is listed as 10 µM, the Emax [1, 9] is listed as 90% and the “Elimination T1/2” value ([2]; 60 mg BID PO, ref Knadler et al. (2011)) is listed as 6.96 to 14.9 h. It also gave a cytotoxicity (in vitro) of under 30%.

In the case of `CNCCCC12CCC(c3ccccc31)c1ccccc12` [Maprotiline hydrochloride, reference compound], the Emax [1, 9] is listed as 104%, the “Elimination T1/2” value ([2]; Single dose 75 mg PO, ref Maguire et al. (1980)) is listed as 45 h and the cytotoxicity (in vitro) is listed as under 30%.

In the case of `COC(=O)[C@H]1[C@H]2C[C@@H]3c4[nH]c5ccccc5c4CCN3C[C@H]2C[C@@H](OC(=O)c2cc(OC)c(OC)c(OC)c2)[C@@H]1OC` [Deserpidine, reference compound], the EC50 [1, 7] is listed as 10 µM, the Emax [1, 8] is listed as 84.7% and the “Elimination T1/2” value ([2]; Single dose 0.25 mg PO, ref Zhang et al. (2009)) is listed as 42.9 ± 17.8 h. For the same molecule, the cytotoxicity at 72 h (in vitro) was under 30%.

In the case of `CNCCC(Oc1ccc(C(F)(F)F)cc1)c1ccccc1` (racemic) [(+/-) -Fluoxetine, reference compound], the Emax [1, 8] is listed as 116%, the “Elimination T1/2” value ([2]; Single dose 40 mg PO, ref Eli Lilly and Company (1987)) is listed as 24 to 72 h and the cytotoxicity (in vitro) is listed as under 30%.

Work on `CCC(CC)COC(=O)[C@H](C)N[P@](=O)(OC[C@H]1O[C@@](C#N)(c2ccc3c(N)ncnn23)[C@H](O)[C@@H]1O)Oc1ccccc1` [Remdesivir, reference compound] yielded an EC50 [1, 7] of 10 µM, an EC50 ([1]; Severe acute respiratory syndrome coronavirus 2, Vero C1008, independent runs of primary screens and hit confirmation; read-out: EC50 in the CPE assay, control concentration-response per run) of 4.56 µM and an IC50 ([1]; Severe acute respiratory syndrome coronavirus 2, Vero C1008, printed in picture of Figure 2B, one value per run; read-out: % CPE Rescue: IC50) of 4.56 µM. For the same molecule, the Emax [1, 8] was 133%, the EC50 ([1]; independent runs of primary screens and hit confirmation; listed as remdesivir; read-out: EC50 in the CPE assay, control concentration-response per run) was 5.17 µM and the EC50 ([1]; independent runs of primary screens and hit confirmation; read-out: EC50 in the CPE assay, control concentration-response per run) was 4.42 µM and 7.28 µM. For the same molecule, the “Substrate of Pgp” value (P-glycoprotein (P-gp)) was “substrate of Pgp”, the EC50 (SARS-CoV-2 [4]) was over 1 µM and the EC50 (SARS-CoV-2 [5]) was over 0.05 µM. The IC50 (Vero E6 cells [6]) was over 30 µM and the cytotoxicity (in vitro) was under 30%.

For `COc1ccc2c(c1)N(C[C@H](C)CN(C)C)c1ccccc1S2` [Methotrimeprazine maleate, reference compound], the EC50 [1, 7] is listed as 10 µM, the Emax [1, 8] is listed as 84.6% and the “Elimination T1/2” value ([2]; Single dose 25 mg PO, ref AA Pharma Inc. (2012)) is listed as 10.8 h. For the same molecule, the EC50 (SARS-CoV) was about 10 µM and the cytotoxicity at 72 h (in vitro) was under 30%.

In the case of `Cc1cc(O[C@@H](CCC(F)(F)F)c2ccc(C(=O)NCCC(=O)O)cc2)cc(C)c1-c1ccc(C(C)(C)C)cc1` [Adomeglivant], the EC50 [1, 10] is reported as 3.16 µM, the Emax [1, 11] is reported as 49.2% and the cytotoxicity at 72 h (in vitro) is reported as 37%.

`CC(=O)Oc1ccccc1C(=O)Nc1ncc([N+](=O)[O-])s1` [Nitazoxanide] showed an EC50 [1, 10] of 6.31 µM, an Emax [1, 11] of 73.7% and a CC50 at 72 h (in vitro) of 12.6 µM. For the same molecule, the cytotoxicity at 72 h (in vitro) was 54.7%.

Work on `CC(C(O)c1ccccc1)N(C)CCOC(c1ccccc1)c1ccccc1` (stereo not shown) [Difeterol, reference compound] yielded an EC50 [1, 7] of 10 µM, an Emax [1, 8] of 113% and a cytotoxicity at 72 h (in vitro) of under 30%.

Work on `CCCNCC(O)COc1ccccc1C(=O)CCc1ccccc1` (stereo not shown) [Propafenone hydrochloride] yielded an Emax [1, 12] of 61.6%, an EC50 [1, 13] of 14.1 µM and a cytotoxicity (in vitro) of 0%.

For `CN1CC[C@@H](c2c(O)cc(O)c3c(=O)cc(-c4ccc(C(F)(F)F)cc4Cl)oc23)[C@@H]1CO` [Voruciclib], the Emax [1, 12] was 39.2%, the EC50 [1, 13] was 14.1 µM and the cytotoxicity (in vitro) was 12.9%.

Work on `CCCCCCC(C)(C)c1cc(O)c2c(c1)OC(C)(C)[C@H]1CC=C(CO)C[C@H]21` [Dexanabinol, reference compound] yielded an EC50 [1, 7] of 10 µM, an Emax [1, 8] of 111% and a cytotoxicity (in vitro) of under 30%.

`CN(C)CCOC(C)(c1ccccc1)c1ccc(Cl)cc1` (stereo not shown) [Chlorphenoxamine] showed an EC50 [1, 10] of 6.31 µM, an Emax [1, 11] of 75.3% and a CC50 at 72 h (in vitro) of 11.2 µM. For the same molecule, the cytotoxicity at 72 h (in vitro) was 36.9%.

Work on `Cc1cn(CCN2CCN(c3ccccc3-c3cc(C#N)cc(C(=O)NCCCN4CCCC4)c3)CC2)c2ccccc12` [LLY-507] yielded an EC50 [1, 10] of 3.16 µM, an Emax [1, 11] of 59.6% and a CC50 at 72 h (in vitro) of 12.6 µM. For the same molecule, the cytotoxicity at 72 h (in vitro) was 108%.
